One data set relates to platelet. As to conditions: reported in literature; cited from earlier work.
The test system of data set [1] is adenocarcinoma gastric cell line (AGS). The data set can be described thus: Cytotoxicity / cell viability, MTT assay. The following applies: human, 24 h. In kind it is cell-based. Here is the method:
The cytotoxicity of the nanoparticle formulation was studied using adenocarcinoma gastric cell line (AGS). Cells were grown in F-12K media supplemented with 20% fetal bovine serum at 5% CO2 humidified atmosphere. Cells were harvested using trypsin and 1×10^4 cells with 100 μL of serum free media per well was plated in 96-well plate and incubated for 24 and 48 h. At end of time interval, media was removed and known concentrations of samples 1×PBS, Navi, GADA/Navi, GADA/Navi/Bcl2 siRNA, GADA/Bcl2 siRNA, Navi/Bcl2 siRNA, (Navi 10, 20, 30, 40, and 50 μM and Bcl2 siRNA 20, 40, 60, 80, and 100 nM) and GADA were added to the cells. The plate was then incubated for 24 h and 48 h. Cell viability was measured using MTT cell proliferation assay kit according to manufacturer's instruction. The absorbance of MTT was measured by using a SYNERGY H1 microplate reader (BioTek) at a wavelength of 570 nm and subtracted the background absorbance recorded at 630 nm.
The mitochondrial enzymes are responsible for reducing the tetrazolium salt (MTT) into purple formazan crystals which is indicator of cell viability/cytotoxicity. The therapeutic effect of formulations was carried out by quantifying the cell viability using MTT assay. […]

For the compound `CC1(C)CCC(c2ccc(Cl)cc2)=C(CN2CCN(c3ccc(C(=O)NS(=O)(=O)c4ccc(N[C@H](CCN5CCOCC5)CSc5ccccc5)c(S(=O)(=O)C(F)(F)F)c4)cc3)CC2)C1` [Navitoclax], in the data set on platelet, the “Platelet apoptosis, thrombocytopenia” value was “induced platelet apoptosis, resulting in severe thrombocytopenia”. In addition, in data set [1], the Cell viability is listed as 65.2±5.32%.

(Values after US20240415852A1, “ORAL CODELIVERY OF NAVITOCLAX AND Bcl2 siRNA TREATING GASTIC CANCER” (Board of Regents, The University of Texas System, priority 2023, published 2024).)
